The text below walks through data of publication PMC5516028, “Molecular tools for GABAA receptors: High affinity ligands for β1-containing subtypes” (Scientific Reports, 2017).

One experiment concerns the target T1, α4β3γ2 GABAA receptors (Rattus norvegicus, UniProt P28471+P63079).
T1 construct: expressed in transfected cells; host or cells: Xenopus laevis oocytes, mRNA injected
Nature of the experiment: Two electrode voltage clamp in Xenopus laevis oocytes, α4β3γ2. To be noted: for activity at 0.001 µM: 1 nM; for activity at 0.003 µM: 3 nM; for activity at 0.01 µM: 10 nM; for activity at 0.03 µM: 30 nM; for activity at 0.1 µM: 100 nM. It counts as cell-based. From the text:
(§1) cDNA’s of rat GABAA receptor subunits α1, α4, β1, β2, β3 and γ2S were cloned as described. cDNAs of the rat subunits α2, α3 and α5 were gifts from P. Malherbe, that of α6 and γ1 were gifts of P. Seeburg and that of δ was a gift of C. Czajkowski. The mutants were constructed using the Q5 Site-Directed Mutagenesis Kit (New England Biolabs) following manufacturer’s instruction. We used the wild-type rat β3-pCI vector as template and the primers […] and […] resulting in a substitution of amino acid N41 (AAC) to R (AGG). We used the wild-type rat β1-pCI vector as template and the primers […] and […] resulting in a substitution of amino acid R41 (CGG) to N (AAC). The mutated subunits were confirmed by sequencing.
(§2) In vitro transcription of mRNA was based on the cDNA expression vectors encoding for rat GABAA receptor subunits α1–6, β1-3, γ1,2, δ and the two β mutants (β1R41N and β3N41R)[40]. After linearizing the cDNA vectors with appropriate restriction endonucleases, the cDNA was purified and concentrated with the DNA Clean and Contentrator ^TM Kit (Zymoresearch, Catalog No. D4005). Capped transcripts of the purified cDNA were produced using the mMESSAGE mMACHINE® T7 transcription kit (Ambion, TX, USA) and polyadenylated using the Ambion PolyA tailing kit (Ambion). After transcription and polyadenylation the RNA was purified with the MEGAclear ^TM Kit (Ambion, Catalog No. AM1908). The final RNA concentration was measured on NanoDrop® ND-1000 and finally diluted and stored in diethylpyrocarbonate-treated water at −80 °C. For the microinjection, the RNA of αβ receptor combinations was mixed at 1:1 ratio (which leads to αβ receptors that consist of predominantly 3 beta and 2 alpha subunits[27]), for αkβlγm (k = 1–3, l = 1, 3, m = 1, 2) receptors at 1:1:5 ratio, for αkβ3γ2 (k = 4–6) and αkβlδ (k = 1, 4 and 6, l = 1, 3) receptor combinations at 3:1:5 ratio.
(§3) Mature female Xenopus laevis (Nasco, WI) were anesthetized in a bath of ice-cold 0.17% Tricain (Ethyl-m-aminobenzoate, Sigma, MO) before decapitation in full accordance with all rules of the Austrian animal protection law (see http://www.ris.bka.gv.at/Dokumente/BgblAuth/BGBLA_2012_I_114/BGBLA_2012_I_114.pdf) and the Austrian animal experiment by-laws (see https://www.ris.bka.gv.at/Dokumente/BgblAuth/BGBLA_2012_II_522/BGBLA_2012_II_522.pdf) which implement the European Directive 2010/63/EU (see http://eur-lex.europa.eu/LexUriServ/LexUriServ.do?uri=OJ:L:2010:276:0033:0079:en:PDF) into the Austrian law (all information accessed on July 27, 2016). The frog’s ovaries were transferred to ND96 medium (96 mM NaCl, 2 mM KCl, 1 mM MgCl2, 5 mM HEPES; pH 7.5). Stage 5–6 oocytes with the follicle cell layer around them were roughly dissected with forceps into packages of 10–15 cells and washed in Ca^2+-free ND96 medium. Cells were then digested with collagenase (type IA, Sigma, NO, 1 mg/mL ND96) at 18 °C shaking at 30 rpm for 30–60 minutes and gently defolliculated with the aid of a glass pipette with appropriate tip diameter and a platinum loop. Defolliculated cells were stored at 18 °C for at least 6 hours in ND96 solution containing penicillin G (10000 IU/100 mL) and streptomycin (10 mg/100 mL) in order to preselect and exclude damaged cells from further treatment. Healthy defolliculated oocytes were injected with an aqueous solution of mRNA. A total of 4.5 ng of mRNA per oocyte was injected with a Nanoject II (Drummond). After injection of mRNA, oocytes were incubated at 18 °C (ND96 + antibiotic) for 2–3 days for αβ receptors and for 3–4 days for αβγ or αβδ receptors before recording. When cells were measured at later time points, oocytes were stored at +4 °C instead of 18 °C.
(§4) For electrophysiological recordings, oocytes were placed on a nylon-grid in a bath of Ca^2+-containing NDE solution medium [96 mM NaCl, 5 mM HEPES-NaOH (pH 7.5), 2 mM KCl, 1 mM MgCl2, 1.8 mM CaCl2].

A further experiment deals with T2, α5β3 GABAA receptors (Rattus norvegicus, UniProt P19969+P63079).
T2 construct: expressed in transfected cells; host or cells: Xenopus laevis oocytes, mRNA injected
T2 sequence (P19969 32-464 limits assumed): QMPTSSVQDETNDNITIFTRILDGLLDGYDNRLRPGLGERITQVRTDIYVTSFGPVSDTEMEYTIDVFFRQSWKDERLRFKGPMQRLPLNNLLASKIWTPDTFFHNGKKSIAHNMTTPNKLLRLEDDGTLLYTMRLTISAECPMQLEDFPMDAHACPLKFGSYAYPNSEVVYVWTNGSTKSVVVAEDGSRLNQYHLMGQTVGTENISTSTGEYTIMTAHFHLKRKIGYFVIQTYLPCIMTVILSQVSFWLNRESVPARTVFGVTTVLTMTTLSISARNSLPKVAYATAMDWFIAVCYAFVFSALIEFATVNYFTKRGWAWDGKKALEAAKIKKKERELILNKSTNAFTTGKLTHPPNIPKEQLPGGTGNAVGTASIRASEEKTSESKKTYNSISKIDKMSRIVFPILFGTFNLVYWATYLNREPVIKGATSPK
T2 sequence (P63079 26-473): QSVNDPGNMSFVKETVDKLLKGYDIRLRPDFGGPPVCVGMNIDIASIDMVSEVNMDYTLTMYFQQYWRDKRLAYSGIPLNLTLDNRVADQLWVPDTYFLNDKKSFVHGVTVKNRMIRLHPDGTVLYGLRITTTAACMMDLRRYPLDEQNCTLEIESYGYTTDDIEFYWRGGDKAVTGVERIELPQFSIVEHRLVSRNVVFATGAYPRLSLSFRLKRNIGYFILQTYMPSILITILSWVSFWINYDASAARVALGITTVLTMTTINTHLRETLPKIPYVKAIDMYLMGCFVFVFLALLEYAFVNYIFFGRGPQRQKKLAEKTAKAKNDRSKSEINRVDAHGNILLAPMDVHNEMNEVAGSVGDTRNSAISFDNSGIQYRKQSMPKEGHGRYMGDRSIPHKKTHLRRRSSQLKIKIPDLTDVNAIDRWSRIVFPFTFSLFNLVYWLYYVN
Also on record: method as in earlier work. Conditions: published data, ref 1 (Supplementary References), read-out: Approximate EC50; cited from earlier work.

A further experiment concerns the target T3, α3β3γ2 GABAA receptors (Rattus norvegicus, UniProt P20236+P63079).
T3 construct: expressed in transfected cells; host or cells: Xenopus laevis oocytes, mRNA injected
Also on record: method as in earlier work. To be noted: published data, ref 1 (Supplementary References), read-out: Approximate EC50; cited from earlier work.

The next experiment addresses T4, α6β3γ2 GABAA receptors (Rattus norvegicus, UniProt P30191+P63079).
T4 construct: expressed in transfected cells; host or cells: Xenopus laevis oocytes, mRNA injected
Further details: method as in earlier work. Conditions: published data, ref 1 (Supplementary References), read-out: Approximate EC50; cited from earlier work.

In a further experiment the target is T5, α1β1γ1 GABAA receptors (Rattus norvegicus, UniProt P15431+P62813).
T5 construct: expressed in transfected cells; host or cells: Xenopus laevis oocytes, mRNA injected
T5 sequence (P62813 28-455): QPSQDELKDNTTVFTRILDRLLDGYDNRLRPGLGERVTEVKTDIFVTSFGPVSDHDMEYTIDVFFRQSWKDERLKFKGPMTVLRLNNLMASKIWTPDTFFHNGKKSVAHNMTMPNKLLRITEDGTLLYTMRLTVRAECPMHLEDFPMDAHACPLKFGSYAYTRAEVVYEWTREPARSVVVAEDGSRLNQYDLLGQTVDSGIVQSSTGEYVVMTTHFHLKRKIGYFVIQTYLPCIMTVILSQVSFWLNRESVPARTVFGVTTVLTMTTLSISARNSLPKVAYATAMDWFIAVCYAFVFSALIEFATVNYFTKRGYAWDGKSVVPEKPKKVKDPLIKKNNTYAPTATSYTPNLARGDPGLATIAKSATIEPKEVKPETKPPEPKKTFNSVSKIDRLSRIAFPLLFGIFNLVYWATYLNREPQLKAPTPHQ
T5 sequence (P15431 26-474): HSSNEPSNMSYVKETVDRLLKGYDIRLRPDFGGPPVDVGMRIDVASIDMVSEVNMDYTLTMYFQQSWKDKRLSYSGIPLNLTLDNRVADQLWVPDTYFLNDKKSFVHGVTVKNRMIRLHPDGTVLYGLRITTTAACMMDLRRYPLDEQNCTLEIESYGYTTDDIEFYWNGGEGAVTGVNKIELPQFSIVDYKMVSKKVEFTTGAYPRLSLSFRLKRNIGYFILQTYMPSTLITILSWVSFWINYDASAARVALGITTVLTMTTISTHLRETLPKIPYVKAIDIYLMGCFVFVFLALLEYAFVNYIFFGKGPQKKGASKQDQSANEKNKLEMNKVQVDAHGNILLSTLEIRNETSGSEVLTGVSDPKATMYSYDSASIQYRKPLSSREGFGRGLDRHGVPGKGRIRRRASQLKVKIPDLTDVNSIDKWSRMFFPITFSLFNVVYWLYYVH
T5 sequence (P23574 36-465 partner limits assumed): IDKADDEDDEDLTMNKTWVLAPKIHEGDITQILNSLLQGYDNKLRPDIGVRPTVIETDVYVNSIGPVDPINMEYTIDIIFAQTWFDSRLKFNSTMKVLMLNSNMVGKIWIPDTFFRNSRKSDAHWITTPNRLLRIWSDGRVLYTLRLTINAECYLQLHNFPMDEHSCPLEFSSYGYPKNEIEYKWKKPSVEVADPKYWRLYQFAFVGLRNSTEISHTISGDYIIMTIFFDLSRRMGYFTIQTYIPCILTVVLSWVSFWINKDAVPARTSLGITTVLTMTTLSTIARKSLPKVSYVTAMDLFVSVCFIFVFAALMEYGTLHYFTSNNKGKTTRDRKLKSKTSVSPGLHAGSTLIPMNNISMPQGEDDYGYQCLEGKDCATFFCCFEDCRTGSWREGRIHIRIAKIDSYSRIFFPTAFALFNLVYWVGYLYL
The experiment is described as follows: Two electrode voltage clamp in Xenopus laevis oocytes, α1β1γ1. It counts as cell-based.
Source text: as §1, §2, §3, §4
Background: In two-electrode clamp one electrode senses voltage and the other passes current.

A further experiment addresses α1β2γ2 GABAA receptors. Also on record: method as in earlier work. To be noted: published data, ref 1 (Supplementary References), read-out: Approximate EC50; cited from earlier work.
Another experiment concerns the target T6, α1β3 GABAA receptors (Rattus norvegicus, UniProt P62813+P63079).
T6 construct: expressed in transfected cells; host or cells: Xenopus laevis oocytes, mRNA injected
Further details: method as in earlier work. Conditions: published data, ref 1 (Supplementary References), read-out: Approximate EC50; cited from earlier work.

The target in another experiment is T7, α5β3γ2 GABAA receptors (Rattus norvegicus, UniProt P19969+P63079).
T7 construct: expressed in transfected cells; host or cells: Xenopus laevis oocytes, mRNA injected
T7 sequence (P19969 32-464 limits assumed): as the sequence (P19969 32-464 limits assumed) above
T7 sequence (P63079 26-473): as the sequence (P63079 26-473) above
T7 sequence (P18508 39-466 partner): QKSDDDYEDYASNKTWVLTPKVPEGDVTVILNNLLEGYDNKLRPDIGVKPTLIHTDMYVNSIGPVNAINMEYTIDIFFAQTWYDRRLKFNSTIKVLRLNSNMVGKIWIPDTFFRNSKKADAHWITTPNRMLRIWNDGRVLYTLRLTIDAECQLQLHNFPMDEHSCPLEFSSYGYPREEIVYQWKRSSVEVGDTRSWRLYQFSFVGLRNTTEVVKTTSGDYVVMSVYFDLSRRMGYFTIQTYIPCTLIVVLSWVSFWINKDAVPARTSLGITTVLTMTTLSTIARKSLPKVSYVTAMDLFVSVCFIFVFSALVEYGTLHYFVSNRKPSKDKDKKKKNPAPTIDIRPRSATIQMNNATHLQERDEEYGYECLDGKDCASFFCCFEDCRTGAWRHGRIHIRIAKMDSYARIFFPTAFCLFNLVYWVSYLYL
Also on record: method as in earlier work. Conditions: published data, ref 1 (Supplementary References), read-out: Approximate EC50; cited from earlier work.

The next experiment has as its target T8, α1β1δ GABAA receptors (Rattus norvegicus, UniProt P15431+P62813).
T8 construct: expressed in transfected cells; host or cells: Xenopus laevis oocytes, mRNA injected
Nature of the experiment: Two electrode voltage clamp in Xenopus laevis oocytes, α1β1δ. It counts as cell-based. To be noted: α1β1δ.
Source text: as §1, §2, §3, §4

In a further experiment the target is α3β2γ2 GABAA receptors. Also on record: method as in earlier work. Conditions: published data, ref 1 (Supplementary References), read-out: Approximate EC50; cited from earlier work.
For the next experiment, the target named is α5β2γ2 GABAA receptors. Further details: method as in earlier work. Conditions: published data, ref 1 (Supplementary References), read-out: Approximate EC50; cited from earlier work.
Where [1] appears, read: read-out: efficacy, % of control current (GABA EC3-5 = 100%), α4β3γ2.

Read-outs that look alike come from different tables or passages of the source. Where only a bound is given, the exact number is not on record here.

T1 sequence (P28471 36-552): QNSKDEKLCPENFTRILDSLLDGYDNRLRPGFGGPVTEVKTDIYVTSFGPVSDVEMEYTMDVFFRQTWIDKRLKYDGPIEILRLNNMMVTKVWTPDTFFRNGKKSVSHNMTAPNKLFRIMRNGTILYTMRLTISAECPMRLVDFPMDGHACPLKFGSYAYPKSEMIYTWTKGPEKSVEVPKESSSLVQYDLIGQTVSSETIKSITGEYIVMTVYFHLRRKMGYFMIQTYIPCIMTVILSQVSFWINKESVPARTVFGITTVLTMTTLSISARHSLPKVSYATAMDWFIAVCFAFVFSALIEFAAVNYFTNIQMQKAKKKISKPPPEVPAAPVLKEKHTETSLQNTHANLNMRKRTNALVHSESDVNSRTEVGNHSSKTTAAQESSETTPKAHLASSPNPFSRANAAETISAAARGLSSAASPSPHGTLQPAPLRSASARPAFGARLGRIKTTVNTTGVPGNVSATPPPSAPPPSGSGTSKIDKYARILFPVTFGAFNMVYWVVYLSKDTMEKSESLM
T1 sequence (P63079 26-473): as the sequence (P63079 26-473) above
T1 sequence (P18508 39-466 partner): as the sequence (P18508 39-466 partner) above
T8 sequence (P62813 28-455): as the sequence (P62813 28-455) above
T8 sequence (P15431 26-474): as the sequence (P15431 26-474) above
T8 sequence (P18506 17-449 partner limits assumed): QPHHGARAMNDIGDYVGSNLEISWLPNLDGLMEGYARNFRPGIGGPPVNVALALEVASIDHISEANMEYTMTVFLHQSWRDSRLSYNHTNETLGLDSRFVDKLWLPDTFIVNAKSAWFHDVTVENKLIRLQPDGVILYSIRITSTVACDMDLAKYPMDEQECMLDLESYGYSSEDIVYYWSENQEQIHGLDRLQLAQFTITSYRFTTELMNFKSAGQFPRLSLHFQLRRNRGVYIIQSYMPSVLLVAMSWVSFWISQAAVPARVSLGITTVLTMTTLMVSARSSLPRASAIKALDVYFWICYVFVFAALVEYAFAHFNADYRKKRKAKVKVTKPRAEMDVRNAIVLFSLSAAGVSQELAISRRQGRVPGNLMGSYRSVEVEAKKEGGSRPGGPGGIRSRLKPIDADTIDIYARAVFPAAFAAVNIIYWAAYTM
T3 sequence (P20236 29-493): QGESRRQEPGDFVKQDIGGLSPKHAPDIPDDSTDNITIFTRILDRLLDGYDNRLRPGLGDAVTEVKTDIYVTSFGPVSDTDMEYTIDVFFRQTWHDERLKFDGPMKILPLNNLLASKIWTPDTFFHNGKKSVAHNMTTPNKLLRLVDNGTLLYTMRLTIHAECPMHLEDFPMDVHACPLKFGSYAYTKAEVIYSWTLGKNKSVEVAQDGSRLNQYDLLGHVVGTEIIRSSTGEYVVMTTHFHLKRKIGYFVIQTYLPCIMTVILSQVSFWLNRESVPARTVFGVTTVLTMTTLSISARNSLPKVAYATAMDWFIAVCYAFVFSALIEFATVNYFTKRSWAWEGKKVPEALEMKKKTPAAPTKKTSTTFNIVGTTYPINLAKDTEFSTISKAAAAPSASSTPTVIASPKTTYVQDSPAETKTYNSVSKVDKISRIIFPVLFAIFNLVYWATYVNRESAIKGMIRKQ
T3 sequence (P63079 26-473): as the sequence (P63079 26-473) above
T3 sequence (P18508 39-466 partner): as the sequence (P18508 39-466 partner) above
T4 sequence (P30191 20-453): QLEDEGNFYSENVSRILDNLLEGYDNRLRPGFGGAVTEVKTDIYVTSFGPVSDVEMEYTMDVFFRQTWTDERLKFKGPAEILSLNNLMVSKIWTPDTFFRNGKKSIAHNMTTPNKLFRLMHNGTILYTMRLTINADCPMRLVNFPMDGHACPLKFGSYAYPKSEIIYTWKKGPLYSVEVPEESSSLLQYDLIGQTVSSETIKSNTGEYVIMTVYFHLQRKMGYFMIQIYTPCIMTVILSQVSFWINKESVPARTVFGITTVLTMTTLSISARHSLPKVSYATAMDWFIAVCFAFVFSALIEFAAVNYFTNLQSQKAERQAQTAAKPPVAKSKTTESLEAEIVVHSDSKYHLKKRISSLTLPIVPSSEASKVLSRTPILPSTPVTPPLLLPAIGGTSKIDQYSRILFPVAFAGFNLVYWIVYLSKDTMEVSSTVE
T4 sequence (P63079 26-473): as the sequence (P63079 26-473) above
T4 sequence (P18508 39-466 partner): as the sequence (P18508 39-466 partner) above

With `Cc1ccc(-n2nc3c4cc(Cl)ccc4[nH]cc-3c2=O)cc1` [Compound 2, 8-Chloro-2-(4-methylphenyl)-2H-pyrazolo[4,3-c]quinolin-3(5H)-one], the EC50 on α4β3γ2 GABAA receptors was 13.4 µM. On α4β3γ2 GABAA receptors (setting [1]), the activity at 0.001 µM amounted to 101 ± 1.8%, the activity at 0.003 µM came out at 96.3 ± 8%, the activity at 0.01 µM came out at 100 ± 2.2% and the activity at 0.03 µM came out at 104 ± 4.4%. Further, on α4β3γ2 GABAA receptors (setting [1]), the activity at 0.1 µM was 120 ± 10.1%, the activity at 1 µM was 162 ± 16.3% and the activity at 10 µM is 267 ± 16.8%. Further, the activity at 30 µM at α4β3γ2 GABAA receptors (read-out: efficacy, % of control current (GABA EC3-5 = 100%), α4β3γ2, 30 µM) is 315 ± 30.1%.

With `COc1ccc(-n2nc3c4cc(Cl)ccc4[nH]cc-3c2=O)cc1` [Compound 1, 8-Chloro-2-(4-methoxyphenyl)-2H-pyrazolo[4,3-c]quinolin-3(5H)-one], the EC50 was about 0.6 µM at α5β3 GABAA receptors; about 1.5 µM on α3β3γ2 GABAA receptors; about 3.3 µM on α6β3γ2 GABAA receptors; 0.08 µM at α1β1γ1 GABAA receptors; about 1.9 µM at α1β2γ2 GABAA receptors; about 1.6 µM on α1β3 GABAA receptors. Moreover, the EC50 at α5β3γ2 GABAA receptors is about 0.6 µM; at α1β1δ GABAA receptors (co-applied with GABA EC3-5, read-out: EC50) it was 0.07 µM; at α1β1δ GABAA receptors (log of EC50, sign as printed, read-out: LogEC50 (converted)) it was 0.1 µM; on α3β2γ2 GABAA receptors, about 2.1 µM; at α5β2γ2 GABAA receptors, about 3 µM. Moreover, the activity at 0.001 µM at α1β1γ1 GABAA receptors (read-out: efficacy, % of control current (GABA EC3-5 = 100%), α1β1γ1, 1 nM) worked out at 110 ± 9.9%. The activity at 1 µM at α1β1γ1 GABAA receptors (read-out: efficacy, % of control current (GABA EC3-5 = 100%), α1β1γ1, 1 µM) was determined as 320 ± 17.9%. The activity at 10 µM at α1β1γ1 GABAA receptors (read-out: efficacy, % of control current (GABA EC3-5 = 100%), α1β1γ1, 10 µM) was found to be 300 ± 20.8%; on α1β1δ GABAA receptors (read-out: efficacy, % of control current (GABA EC3-5 = 100%), 10 µM), 294 ± 11.1%. For the same molecule, the “Hill slope (nH)” value on α1β1γ1 GABAA receptors (α1β1γ1) was 1.1±0.4; on α1β1δ GABAA receptors, 0.8±0.2. Moreover, the activity at 0.01 µM at α1β1δ GABAA receptors (read-out: efficacy, % of control current (GABA EC3-5 = 100%), 10 nM) stood at 126 ± 5.6%. Also, the activity at 0.03 µM on α1β1δ GABAA receptors (read-out: efficacy, % of control current (GABA EC3-5 = 100%), 30 nM) turned out to be 192 ± 21.1%.

On to `Nc1ccc(-n2nc3c4cc(Cl)ccc4[nH]cc-3c2=O)cc1` [Compound 3, 8-Chloro-2-(4-aminophenyl)-2H-pyrazolo[4,3-c]quinolin-3(5H)-one], for which the EC50 at α4β3γ2 GABAA receptors is over 10 µM. At α4β3γ2 GABAA receptors (setting [1]), the activity at 0.001 µM is 99.7 ± 2%, the activity at 0.003 µM was determined as 111%, the activity at 0.01 µM turned out to be 107 ± 3.4% and the activity at 0.03 µM stood at 114%. Also, on α4β3γ2 GABAA receptors (setting [1]), the activity at 0.1 µM came out at 122 ± 4.6%, the activity at 1 µM amounted to 137 ± 6.7% and the activity at 10 µM is 104 ± 12.6%.
